Test system: participants with SSc-RP
Test: Scleroderma Health Assessment Questionnaire (SHAQ): disability indices and visual analog scales
Format: in vivo, human
Conditions: for SHAQ Visual Analogue Scale - Overall Disease Severity, Median / SHAQ Visual Analogue Scale - Pain, Mean / SHAQ Visual Analogue Scale - Pain, Median / SHAQ Visual Analogue Scale - Raynaud's, Mean / SHAQ Visual Analogue Scale - Raynaud's, Median / SHAQ Visual Analogue Scale - Breathing Problems, Mean / SHAQ Visual Analogue Scale - Breathing Problems, Median / SHAQ Visual Analogue Scale - Finger Ulcers, Mean / SHAQ Visual Analogue Scale - Finger Ulcers, Median / SHAQ Visual Analogue Scale - Intestinal Problems, Mean / SHAQ Visual Analogue Scale - Intestinal Problems, Median / SHAQ Visual Analogue Scale - Overall Disease Severity, Mean: In-Clinic Visit (Day 12), PP Population Part A
Description: The standard, validated, patient reported outcome measures tool for SSc patients, the Scleroderma Health Assessment Questionnaire (SHAQ), will be used to assess the participant qualify of life. Details are attached in the Appendix. The participant quality of life will be scored, and a disability index calculated for each questionnaire completed by the patient at Screening and each in-clinic visit. The absolute change in participant quality of life from baseline to the end of each dosing period will be calculated similar to frequency data as before.
The SHAQ includes a Raynaud's VAS, which will be reported at screening and each in-clinic visit. The absolute change in Raynaud-VAS, assessed by the participants response to the SHAQ question ‘In the past 7 days, how much have your Raynaud's interfered with your daily activities?’ at baseline and the end of each dosing period will be calculated similar to frequency data as before.
The SHAQ is used to calculate a Disability Index to assess the participant qualify of life. The eight categories assessed by the Disability Index are 1) dressing and grooming, 2) arising, 3) eating, 4) walking, 5) hygiene, 6) reach, 7) grip, and 8) common daily activities. For each of these categories, patients report the amount of difficulty they have in performing two or three specific activities.
There are four possible responses for the Disability Index questions: • Without any difficulty=0 • With some difficulty=1 • With much difficulty=2 • Unable to do=3. • The highest score reported by the patient for any component question of the eight categories determines the score for that category. • If a component question is left blank or the response is too ambiguous to assign a score, then the score for that category is determined by the remaining completed question(s). • If all component questions are blank or if more than one answer is given, then follow up with the respondent is required. • If the respondent's mark is between the response columns, then move it to the closest one. If it's directly between the two, move it to the higher one.
Each of the disability items on the SHAQ has a companion aids/devices variable that is used to record what type(s) of assistance, if any, the participant uses for his/her usual activities. These variables (see below) are coded as follows: • 0=No assistance is needed. • 1=A special device is used by the patient in his/her usual activities. • 2=The patient usually needs help from another person. • 3=The patient usually needs BOTH a special device AND help from another person.
The scoring variables and scoring rules permit the computation of two disability indices, the Standard Disability Index and the Alternative Disability Index.
This question results in a new set of category scores that are computed by adjusting the score for each category, if necessary, based on the patient's use of an aid or device or assistance for that category. If either devices and/or help from another person are checked for a category, the score is set to “2”, unless the score is already “3” (i.e., scores of “0” or “1” are increased to “2”). For example, if the highest score for the dressing category is “1”, and the patient says they use a device for dressing, the computed category score would be “2”. The sum of the computed categories scores is then calculated and divided by the number of categories answered. This gives a score in the 0 to 3 range.
The aid and device variables are not used to calculate the alternative disability index; it is calculated by adding the scores for each of the categories and dividing by the number of categories answered. This gives a score in the 0 to 3 range.
The standard, validated, patient reported outcome measures tool for SSc patients, the SHAQ, was collected at the time points specified in the study schedules (FIG. 2 and FIGS. 4A and 4B) to assess the participant's quality of life. The SHAQ included a Raynaud's VAS that will also be reported separately.

[1] = Pooled Cilnidipine 10 mg and Cilnidipine 10 mg + Tadalafil 5 mg (N = 9)
[2] = Pooled Cilnidipine 10 mg and Cilnidipine 10 mg + Tadalafil 5 mg (N = 9), Subject 01-110 score excluded
[3] = Pooled Cilnidipine 20 mg and Cilnidipine 20 mg + Tadalafil 5 mg (N = 8)
[4] = Modified ITT, Part A, dose Cilnidipine 10 mg, Tadalafil 5 mg, or 10 mg + 5 mg
[5] = Modified ITT, Part A, dose Cilnidipine 20 mg, or 20 mg + Tadalafil 5 mg

In the case of COCCOC(=O)C1=C(C)NC(C)=C(C(=O)OC/C=C/c2ccccc2)C1c1cccc([N+](=O)[O-])c1 (stereo not shown) [Cilnidipine, cilnidipine], the “SHAQ Visual Analogue Scale - Overall Disease Severity, Median” value [1] is reported as 1.900, the “SHAQ Visual Analogue Scale - Pain, Mean” value [1] is reported as 2.644 and the “SHAQ Visual Analogue Scale - Pain, Median” value [1] is reported as 2.900. For the same molecule, the “SHAQ Visual Analogue Scale - Raynaud's, Mean” value [1] was 2.319, the “SHAQ Visual Analogue Scale - Raynaud's, Median” value [1] was 2.600 and the “SHAQ Visual Analogue Scale - Breathing Problems, Mean” value [2] was 1.375. For the same molecule, the “SHAQ Visual Analogue Scale - Breathing Problems, Median” value [2] was 0.000, the “SHAQ Visual Analogue Scale - Breathing Problems, Mean” value [3] was 1.400 and the “SHAQ Visual Analogue Scale - Breathing Problems, Median” value [3] was 0.450. The “SHAQ Visual Analogue Scale - Finger Ulcers, Mean” value [3] was 1.171, the “SHAQ Visual Analogue Scale - Finger Ulcers, Median” value [3] was 0.000 and the “SHAQ Visual Analogue Scale - Intestinal Problems, Mean” value [3] was 1.013. For the same molecule, the “SHAQ Visual Analogue Scale - Intestinal Problems, Median” value [3] was 0.100, the “SHAQ Visual Analogue Scale - Overall Disease Severity, Mean” value [3] was 1.938 and the “SHAQ Visual Analogue Scale - Overall Disease Severity, Median” value [3] was 1.300. For the same molecule, the “SHAQ Visual Analogue Scale - Pain, Mean” value [3] was 2.288, the “SHAQ Visual Analogue Scale - Pain, Median” value [3] was 2.100 and the “SHAQ Visual Analogue Scale - Raynaud's, Mean” value [3] was 1.688. The “SHAQ Visual Analogue Scale - Raynaud's, Median” value [3] was 0.850, the “SHAQ Visual Analogue Scale - Breathing Problems, Mean” value (Pooled Cilnidipine (N = 8)) was 1.213 and the “SHAQ Visual Analogue Scale - Breathing Problems, Median” value (Pooled Cilnidipine (N = 8)) was 0.200. For the same molecule, the “SHAQ Visual Analogue Scale - Finger Ulcers, Mean” value (Pooled Cilnidipine (N = 8)) was 0.463, the “SHAQ Visual Analogue Scale - Finger Ulcers, Median” value (Pooled Cilnidipine (N = 8)) was 0.000 and the “SHAQ Visual Analogue Scale - Intestinal Problems, Mean” value (Pooled Cilnidipine (N = 8)) was 0.975. For the same molecule, the “SHAQ Visual Analogue Scale - Intestinal Problems, Median” value (Pooled Cilnidipine (N = 8)) was 0.300, the “SHAQ Visual Analogue Scale - Overall Disease Severity, Mean” value (Pooled Cilnidipine (N = 8)) was 1.475 and the “SHAQ Visual Analogue Scale - Overall Disease Severity, Median” value (Pooled Cilnidipine (N = 8)) was 1.300. For the same molecule, the “SHAQ Visual Analogue Scale - Pain, Mean” value (Pooled Cilnidipine (N = 8)) was 1.875, the “SHAQ Visual Analogue Scale - Pain, Median” value (Pooled Cilnidipine (N = 8)) was 1.550 and the “SHAQ Visual Analogue Scale - Raynaud's, Mean” value (Pooled Cilnidipine (N = 8)) was 1.900. For the same molecule, the “SHAQ Visual Analogue Scale - Raynaud's, Median” value (Pooled Cilnidipine (N = 8)) was 1.250, the “SHAQ Finger Ulcers, Baseline, Mean” value [4] was 0.700 and the “SHAQ Finger Ulcers, Baseline, Median” value [4] was 0.500. For the same molecule, the “SHAQ Finger Ulcers, In Clinic Visit (Day 12), Mean” value [4] was 0.275, the “SHAQ Finger Ulcers, In Clinic Visit (Day 12), Median” value [4] was 0.000 and the “SHAQ Standard disability index, Baseline, Mean” value [4] was 0.656. For the same molecule, the “SHAQ Standard disability index, Baseline, Median” value [4] was 0.563, the “SHAQ Standard disability index, In Clinic Visit (Day 12), Mean” value [4] was 0.656 and the “SHAQ Standard disability index, In Clinic Visit (Day 12), Median” value [4] was 0.563. For the same molecule, the “SHAQ Visual Analog Scale-Breathing Problems, Baseline, Mean” value [4] was 1.875, the “SHAQ Visual Analog Scale-Breathing Problems, Baseline, Median” value [4] was 0.000 and the “SHAQ Visual Analog Scale-Breathing Problems, In Clinic Visit (Day 12), Mean” value [4] was 1.575. The “SHAQ Visual Analog Scale-Breathing Problems, In Clinic Visit (Day 12), Median” value [4] was 0.000, the “SHAQ Visual Analog Scale-Intestinal Problems, Baseline, Mean” value [4] was 2.975 and the “SHAQ Visual Analog Scale-Intestinal Problems, Baseline, Median” value [4] was 2.550. The “SHAQ Visual Analog Scale-Intestinal Problems, In Clinic Visit (Day 12), Mean” value [4] was 1.100, the “SHAQ Visual Analog Scale-Intestinal Problems, In Clinic Visit (Day 12), Median” value [4] was 0.300 and the “SHAQ Visual Analog Scale-Pain, Baseline, Mean” value [4] was 1.975. For the same molecule, the “SHAQ Visual Analog Scale-Pain, Baseline, Median” value [4] was 2.150, the “SHAQ Visual Analog Scale-Pain, In Clinic Visit (Day 12), Mean” value [4] was 1.875 and the “SHAQ Visual Analog Scale-Pain, In Clinic Visit (Day 12), Median” value [4] was 1.950. For the same molecule, the “SHAQ Visual Analog Scale-Raynaud's, Baseline, Mean” value [4] was 1.600, the “SHAQ Visual Analog Scale-Raynaud's, Baseline, Median” value [4] was 1.000 and the “SHAQ Visual Analog Scale-Raynaud's, In Clinic Visit (Day 12), Mean” value [4] was 1.925. The “SHAQ Visual Analog Scale-Raynaud's, In Clinic Visit (Day 12), Median” value [4] was 1.700, the “SHAQ alternative disability index, Baseline, Mean” value [4] was 0.500 and the “SHAQ alternative disability index, Baseline, Median” value [4] was 0.438. For the same molecule, the “SHAQ alternative disability index, In Clinic Visit (Day 12), Mean” value [4] was 0.563, the “SHAQ alternative disability index, In Clinic Visit (Day 12), Median” value [4] was 0.500 and the “SHAQ Finger Ulcers, Baseline, Mean” value [5] was 1.800. For the same molecule, the “SHAQ Finger Ulcers, Baseline, Median” value [5] was 0.300.

— patent US20240358693A1, “METHODS OF TREATING PAIN” (Aisa Pharma, Inc., priority 2023, published 2024)
